± gives the expanded uncertainty stated by the source.
Test: mn = molality of the nth substance listed, in mol/kg
Conditions: 100 kPa, Liquid; for molar conductivity: Alternating current cell with electrodes; for mass density: Vibrating tube method, m1 = 0.009397

CCn1cc[n+](C)c1.F[B-](F)(F)F [1-ethyl-3-methylimidazolium tetrafluoroborate] + CCCCO
molar conductivity [S·m2/mol]
Conditions	283.15 K	288.15 K	293.15 K	298.15 K	303.15 K	308.15 K	313.15 K	318.15 K
m1 = 3.974e-05	0.00127 ± 1.3e-05	0.00144 ± 1.5e-05	0.00165 ± 1.7e-05	0.00188 ± 1.9e-05	0.00213 ± 2.2e-05	0.002402 ± 2.4e-05	0.00268 ± 2.7e-05	0.003 ± 3e-05
m1 = 6.936e-05	0.001204 ± 1.2e-05	0.00138 ± 1.4e-05	0.00158 ± 1.6e-05	0.0018 ± 1.8e-05	0.00203 ± 2.1e-05	0.00228 ± 2.3e-05	0.00255 ± 2.6e-05	0.00284 ± 2.9e-05
m1 = 0.0001047	0.00115 ± 1.2e-05	0.00132 ± 1.4e-05	0.001505 ± 1.5e-05	0.00172 ± 1.8e-05	0.00193 ± 2e-05	0.00217 ± 2.2e-05	0.00242 ± 2.5e-05	0.00269 ± 2.8e-05
m1 = 0.0001865	0.00106 ± 1.1e-05	0.00121 ± 1.3e-05	0.00138 ± 1.5e-05	0.00157 ± 1.7e-05	0.00177 ± 1.9e-05	0.00198 ± 2.1e-05	0.0022 ± 2.3e-05	0.00244 ± 2.6e-05
m1 = 0.0002945	0.000977 ± 1.1e-05	0.00111 ± 1.2e-05	0.00127 ± 1.4e-05	0.00144 ± 1.6e-05	0.00162 ± 1.8e-05	0.00181 ± 2e-05	0.00201 ± 2.2e-05	0.00222 ± 2.5e-05
m1 = 0.0004005	0.000913 ± 1e-05	0.00104 ± 1.1e-05	0.00119 ± 1.3e-05	0.00134 ± 1.4e-05	0.00151 ± 1.6e-05	0.00169 ± 1.8e-05	0.00187 ± 2e-05	0.00206 ± 2.2e-05
m1 = 0.000688	0.000802 ± 9e-06	0.000915 ± 1.1e-05	0.00104 ± 1.2e-05	0.00117 ± 1.4e-05	0.00131 ± 1.5e-05	0.00146 ± 1.7e-05	0.00162 ± 1.9e-05	0.00178 ± 2.1e-05
m1 = 0.0009724	0.000729 ± 8e-06	0.00083 ± 9e-06	0.000943 ± 1.1e-05	0.00106 ± 1.2e-05	0.00119 ± 1.3e-05	0.00133 ± 1.5e-05	0.00147 ± 1.7e-05	0.00161 ± 1.8e-05
m1 = 0.001464	0.000642 ± 8e-06	0.000733 ± 9e-06	0.000833 ± 1e-05	0.000942 ± 1.1e-05	0.00106 ± 1.3e-05	0.00117 ± 1.4e-05	0.00129 ± 1.6e-05	0.00142 ± 1.7e-05
m1 = 0.001942	0.000597 ± 7e-06	0.000668 ± 8e-06	0.000762 ± 9e-06	0.000859 ± 1e-05	0.000961 ± 1.1e-05	0.00107 ± 1.2e-05	0.00118 ± 1.4e-05	0.00129 ± 1.5e-05
m1 = 0.002839	0.000519 ± 7e-06	0.000592 ± 8e-06	0.000671 ± 9e-06	0.000759 ± 1e-05	0.000848 ± 1.1e-05	0.000941 ± 1.2e-05	0.00103 ± 1.4e-05	0.00114 ± 1.5e-05

Conditions	mass density [kg/m3]
283.15 K	817.716 ± 0.22
288.15 K	813.954 ± 0.22
293.15 K	810.164 ± 0.22
298.15 K	806.357 ± 0.22
303.15 K	802.519 ± 0.22
308.15 K	798.653 ± 0.23
313.15 K	794.75 ± 0.23
318.15 K	790.804 ± 0.23
